Among the test systems are SK-MEL-28 melanoma; T-47D breast; SK-MEL-5 melanoma; HS 578T breast; M14 melanoma; U251 CNS; SNB-19 CNS; HT29 colon.
Common to all, as to test: NCI anticancer screen, dose series, 48 h

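Following 48 hours of exposure in 96-well plates, responses at five concentrations were used to interpolate endpoints linearly. Here, GI50 denotes the concentration required for 50% inhibition of growth. TGI: concentration producing complete growth inhibition.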

As for `CC(=O)OC1COC(Oc2c(C)c3c4c(c2O)[C@@H](C)CC[C@@H]4[C@@H](C)C[C@H]3C=C(C)C)C(O)C1O` (stereo not given in full), the GI50 with SK-MEL-28 melanoma was 23.8 µM; in the assay on T-47D breast, 33.2 µM; in the assay on SK-MEL-5 melanoma, 16.4 µM; in the assay on HS 578T breast, greater than 100 µM; in the assay on M14 melanoma, 13 µM; in the assay on U251 CNS, 19.5 µM. Further, the GI50 with SNB-19 CNS is 28.8 µM. Further, the TGI is 57.3 µM with SK-MEL-28 melanoma; greater than 100 µM in the assay on T-47D breast; 34.1 µM with SK-MEL-5 melanoma; greater than 100 µM in the assay on HS 578T breast; 28.6 µM with M14 melanoma; 41.6 µM in the assay with U251 CNS. The same compound returned a TGI in the assay on SNB-19 CNS of 73.7 µM.
On to `O=C(Nc1ccc(Br)cc1)Nc1cccc(Br)c1`, for which the GI50 in the assay with SK-MEL-28 melanoma is 4.77 µM; with SK-MEL-5 melanoma it was greater than 100 µM; in the assay with HS 578T breast it was greater than 100 µM; in the assay with M14 melanoma, 9.96 µM; in the assay with SNB-19 CNS, 11.1 µM. Besides, the TGI in the assay on SK-MEL-28 melanoma, in the assay with SK-MEL-5 melanoma, in the assay on HS 578T breast, with M14 melanoma and in the assay on SNB-19 CNS was greater than 100 µM in each case.
With `Cc1ccc(-c2nc(C(Cl)Cl)nc3cc(C)nn23)cc1`, the GI50 with T-47D breast is 2.86 µM; with SK-MEL-5 melanoma it was 3.5 µM; with HT29 colon, 0.458 µM; with SNB-19 CNS it was 2.34 µM. The TGI in the assay with T-47D breast, in the assay with SK-MEL-5 melanoma, in the assay on HT29 colon and in the assay with SNB-19 CNS was greater than 100 µM each time.
For the compound `CC(C)c1cc(C(C)C)c(Cl)c(Cl)c1O` (tested in a mixture with another compound), the TGI in the assay with SK-MEL-28 melanoma is 42.4 µM; in the assay with SK-MEL-5 melanoma it was 24.3 µM; with HS 578T breast it was 38.5 µM; in the assay with M14 melanoma it was greater than 100 µM; in the assay with U251 CNS it was greater than 100 µM; in the assay on HT29 colon it was 58.8 µM. This compound displayed a TGI in the assay with SNB-19 CNS of 42.8 µM.
For `c1ccc2c(c1)[O][Sn][O]2`, the GI50 is 81.8 µg/mL with SK-MEL-28 melanoma; 20.7 µg/mL in the assay on SK-MEL-5 melanoma; 57.3 µg/mL in the assay with M14 melanoma; greater than 150 µg/mL in the assay with U251 CNS; 95.4 µg/mL in the assay with HT29 colon; 61.5 µg/mL in the assay with SNB-19 CNS. The TGI in the assay with SK-MEL-28 melanoma, in the assay with SK-MEL-5 melanoma, in the assay with M14 melanoma, with U251 CNS, with HT29 colon and in the assay on SNB-19 CNS was greater than 150 µg/mL in each case.
For the compound `NC(=O)C(=O)Cc1nc2ccccc2s1`, the TGI in the assay on SK-MEL-28 melanoma, in the assay with M14 melanoma, in the assay on U251 CNS, with HT29 colon and with SNB-19 CNS was greater than 100 µM in each case.
As for `O=C1C2C(C(=O)N1CC[Se][Se]CCN1C(=O)C3C(C1=O)[C@H]1C=C[C@@H]3C1)[C@H]1C=C[C@@H]2C1` (stereo not given in full), the GI50 was 0.362 µM in the assay with SK-MEL-28 melanoma; 2.09 µM in the assay with T-47D breast; 1.67 µM in the assay with SK-MEL-5 melanoma; 0.266 µM in the assay with HS 578T breast; 0.332 µM with M14 melanoma; 0.597 µM with U251 CNS. The GI50 with HT29 colon was 0.355 µM. Besides, the TGI was found to be 3.02 µM in the assay with SK-MEL-28 melanoma; 5.42 µM in the assay with T-47D breast; 3.7 µM in the assay with SK-MEL-5 melanoma; 1.16 µM in the assay with HS 578T breast; 1.97 µM in the assay on M14 melanoma; 3.04 µM with U251 CNS. In the assay with HT29 colon, this compound registered a TGI of 12.7 µM.
In the case of `CCN(CC)CCCNc1c2ccc(Cl)cc2nc2ccc(OC)cc12`, the GI50 is 1.64 µM with SK-MEL-5 melanoma, 2.05 µM in the assay on HS 578T breast, 0.033 µM with HT29 colon and 0.0587 µM with SNB-19 CNS. The TGI in the assay on SK-MEL-5 melanoma was 3.02 µM; with HS 578T breast, 5.54 µM; in the assay with HT29 colon, 1.56 µM; with SNB-19 CNS, 4.57 µM.
For `CN(C)CCS(=O)(=O)Nc1cc(-c2ccc3ncnc(Nc4ccc(F)c(Cl)c4)c3c2)cnc1Cl`, the GI50 was 0.0941 µM in the assay with T-47D breast; 0.208 µM in the assay with SK-MEL-5 melanoma; 0.32 µM in the assay with HS 578T breast; 0.655 µM in the assay on M14 melanoma; 0.85 µM with U251 CNS; 1.91 µM with SNB-19 CNS. The TGI with T-47D breast was 0.635 µM; with SK-MEL-5 melanoma it was 0.622 µM; with HS 578T breast it was 10.8 µM; in the assay on M14 melanoma, greater than 35.4 µM; with U251 CNS, 2.91 µM; in the assay with SNB-19 CNS, greater than 100 µM.
Consider `O=C1c2ccccc2-c2c1c1ccc([N+](=O)[O-])cc1c(=O)n2CCCCl`, for which the GI50 in the assay on SK-MEL-28 melanoma is 17 µM; with SK-MEL-5 melanoma, 0.874 µM; with M14 melanoma, 47 µM; with U251 CNS, 3.08 µM; in the assay with HT29 colon, 65 µM. Further, the TGI was greater than 100 µM in the assay on SK-MEL-28 melanoma; 5.89 µM in the assay with SK-MEL-5 melanoma; greater than 100 µM in the assay on M14 melanoma; greater than 100 µM with U251 CNS; greater than 100 µM with HT29 colon.

Source of the values: PubChem BioAssay (NCI).
